Laboratory results reported in paper PMC3646771, “The Second Intracellular Loop of the Human Cannabinoid CB2 Receptor Governs G Protein Coupling in Coordination with the Carboxyl Terminal Domain” (PLoS ONE, 2013).

Key:
Experiment in all cases: CRE-luciferase cAMP reporter, HEK293
Type in all cases: cell-based, Homo sapiens
[1] = test system: T1, CB2-ICL2 (i2); conditions: agonist; inhibition of cAMP elevated by 10 µM forskolin, 4 h, 37 °C; pEC50 7.74±0.09
T1 construct: gene CNR2; Flag-tagged CB2 with second intracellular loop replaced by that of CB1; HEK293
Description: CRE-luciferase cAMP reporter, HEK293 on CB2-ICL2 (i2)

[2] = test system: T2, CB2-ICL2ICL3 (i2i3); conditions: agonist; inhibition of cAMP elevated by 10 µM forskolin, 4 h, 37 °C; pEC50 8.47±0.15
T2 construct: gene CNR2; Flag-tagged CB2 with second and third intracellular loops of CB1; HEK293
Description: CRE-luciferase cAMP reporter, HEK293 on CB2-ICL2ICL3 (i2i3)

[3] = test system: T3, CB2-ICL1 (i1); conditions: agonist; inhibition of cAMP elevated by 10 µM forskolin, 4 h, 37 °C; pEC50 8.17±0.19
T3 construct: gene CNR2; Flag-tagged CB2 with first intracellular loop replaced by that of CB1; HEK293
Description: CRE-luciferase cAMP reporter, HEK293 on CB2-ICL1 (i1)

[4] = test system: T4, CB2-ICL2Cter (i2Cter); conditions: agonist; stimulation of cAMP, no forskolin, 4 h, 37 °C; pEC50 6.85±0.1
T4 construct: gene CNR2; Flag-tagged CB2 with second intracellular loop and C-terminal tail of CB1; HEK293
Description: CRE-luciferase cAMP reporter, HEK293 on CB2-ICL2Cter (i2Cter)

[5] = test system: T5, CB2-Cter (Cter); conditions: agonist, 4 h, 37 °C
T5 construct: gene CNR2; Flag-tagged CB2 with C-terminal tail replaced by that of CB1; HEK293
Description: CRE-luciferase cAMP reporter, HEK293 on CB2-Cter (Cter)

[6] = test system: T6, CB2-ICL2ICL3Cter (i2i3Cter); conditions: agonist; inhibition of cAMP elevated by 10 µM forskolin, 4 h, 37 °C; pEC50 8.48±0.22
T6 construct: gene CNR2; Flag-tagged CB2 with second and third intracellular loops and C-terminal tail of CB1; HEK293
Description: CRE-luciferase cAMP reporter, HEK293 on CB2-ICL2ICL3Cter (i2i3Cter)

[7] = test system: T7, CB2-ICL3 (i3); conditions: agonist; inhibition of cAMP elevated by 10 µM forskolin, 4 h, 37 °C; pEC50 7.99±0.22
T7 construct: gene CNR2; Flag-tagged CB2 with third intracellular loop replaced by that of CB1; HEK293
Description: CRE-luciferase cAMP reporter, HEK293 on CB2-ICL3 (i3)

`Cc1c(C(=O)c2cccc3ccccc23)c2cccc3c2n1[C@H](CN1CCOCC1)CO3` [WIN55,212-2] showed an EC50 [1] of 19.2 ± 4.4 nM, an EC50 [2] of 3.8 ± 1.2 nM and an EC50 [3] of 8 ± 2.8 nM. For the same compound, the EC50 [4] was 149 ± 35 nM, the EC50 ([5]; P139LCter, stimulation of cAMP, no forskolin, pEC50 7.53±0.11) was 29.8 ± 7.1 nM and the EC50 ([5]; inhibition of cAMP elevated by 10 µM forskolin, pEC50 8.23±0.03) was 5.9 ± 0.4 nM. The EC50 [6] was 4.4 ± 2.4 nM and the EC50 [7] was 13.4 ± 7.3 nM.
